Source: ChEMBL document CHEMBL5034034 (J Med Chem, 2021)
Blank lines part the entries; values can stand above or below the molecule they belong to. Activity calls are given as the source filed them. No cut-off for these calls is given here.

Tests used:
[1] = target: T1, Proprotein convertase subtilisin/kexin type 9 (Homo sapiens, UniProt Q8NBP7); assay: Inhibition of PCSK9 in human plasma assessed as reduction in unbound PCSK9 by target engagement assay; assay type: cell-free
[2] = Half life in cynomolgus monkey at 0.2 mg/kg, iv measured upto 72 hrs by LC-MS/MS analysis; assay type: ADME, organism-based, Macaca fascicularis; details: in vivo
[3] = target: T1, Proprotein convertase subtilisin/kexin type 9; assay: Inhibition of human PCSK9 using Alexa Fluor […] as substrate incubated for 2 hrs by FRET assay
[4] = AUC(0 to infinity) in cynomolgus monkey at 0.2 mg/kg, iv measured upto 72 hrs by LC-MS/MS analysis; assay type: ADME, organism-based, Macaca fascicularis; design: route intravenous, dose 0.2 mg/kg, time <=72; details: in vivo
[5] = Reduction in unbound PCSK9 levels in cynomolgus monkey at 0.2 mg/kg, iv after 24 to 48 hrs; assay type: functional, Macaca fascicularis; design: scale not given: the % may be the effect or the level left; details: time 24-48 hrs
[6] = Clearance in cynomolgus monkey at 0.2 mg/kg, iv measured upto 72 hrs by LC-MS/MS analysis; assay type: ADME, organism-based, Macaca fascicularis; details: in vivo
[7] = Protein binding in cynomolgus monkey at 0.2 mg/kg, iv measured upto 72 hrs by LC-MS/MS analysis; assay type: ADME, organism-based, Macaca fascicularis; details: in vivo, read-out: PB (converted)
[8] = target: T1, Proprotein convertase subtilisin/kexin type 9; assay: Inhibition of human PCSK9 using Alexa Fluor […] as substrate incubated for 2 hrs by FRET ultra assay
[9] = Metabolic stability in cynomolgus monkey whole blood assessed as half life measured upto 6 hrs by LC-MS/MS analysis; assay type: ADME, tissue-based, Macaca fascicularis
[10] = Unbound clearance in cynomolgus monkey at 0.2 mg/kg, iv measured upto 72 hrs by LC-MS/MS analysis; assay type: ADME, organism-based, Macaca fascicularis; details: in vivo
[11] = target: T2, Solute carrier organic anion transporter family member 1B1 (Homo sapiens, UniProt Q9Y6L6); assay: Inhibition of OATP1B1 (unknown origin) expressed in HEK293 cells assessed as reduction in OATP 1B1-mediated [3H]-pitavastatin uptake preincubated for 30 mins followed by [3H]-pitavastatin addition and measured after 2 mins by liquid scintillation analysis; assay type: cell-based
T2 sequence (Q9Y6L6 whole entry): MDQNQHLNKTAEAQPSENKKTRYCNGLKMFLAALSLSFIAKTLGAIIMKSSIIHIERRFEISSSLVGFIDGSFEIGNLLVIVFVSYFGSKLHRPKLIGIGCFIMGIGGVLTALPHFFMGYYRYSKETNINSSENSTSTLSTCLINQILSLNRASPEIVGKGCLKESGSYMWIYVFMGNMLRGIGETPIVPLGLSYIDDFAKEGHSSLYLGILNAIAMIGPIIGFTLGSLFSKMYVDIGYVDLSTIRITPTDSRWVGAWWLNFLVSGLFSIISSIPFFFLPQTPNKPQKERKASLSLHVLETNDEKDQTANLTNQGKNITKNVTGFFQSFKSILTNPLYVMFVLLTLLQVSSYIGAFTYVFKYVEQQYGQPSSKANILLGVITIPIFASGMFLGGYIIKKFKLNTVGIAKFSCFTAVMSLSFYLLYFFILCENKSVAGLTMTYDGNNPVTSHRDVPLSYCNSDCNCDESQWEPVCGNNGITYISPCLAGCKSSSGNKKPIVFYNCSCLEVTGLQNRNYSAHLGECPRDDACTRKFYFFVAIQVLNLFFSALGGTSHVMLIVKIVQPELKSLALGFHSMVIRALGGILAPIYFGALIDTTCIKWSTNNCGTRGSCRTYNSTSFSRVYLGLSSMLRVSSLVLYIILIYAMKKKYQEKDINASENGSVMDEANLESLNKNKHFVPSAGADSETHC

[12] = species on record: Sus scrofa; assay: Stability of the compound assessed as porcine pepsin-mediated parent compound depletion by measuring parent compound remaining after 1 hr by LC-MS/MS analysis
[13] = AUC(0 to infinity) in Wistar Han rat at 5 mg/kg, id measured upto 24 hrs by LC-MS/MS analysis; assay type: ADME, organism-based; design: dose 5 mg/kg, time <=24; details: in vivo
[14] = Oral bioavailability in cynomolgus monkey at 1 mg/kg measured upto 72 hrs by LC-MS/MS analysis; assay type: ADME, organism-based, Macaca fascicularis; details: in vivo
[15] = Reduction in unbound PCSK9 levels in cynomolgus monkey at 0.2 mg/kg, po after 0.5 to 6 hrs; assay type: functional, Macaca fascicularis; design: scale not given: the % may be the effect or the level left; details: time 0.5-6 hrs
[16] = species on record: Bos taurus; assay: Stability of the compound assessed as bovine pancreas alpha chymotrypsin-mediated parent compound depletion by measuring parent compound remaining after 1 hr by LC-MS/MS analysis
[17] = species on record: Macaca fascicularis; assay: Inhibition of PCSK9 in cynomolgus monkey plasma assessed as reduction in unbound PCSK9 by target engagement assay; assay type: cell-free
[18] = Reduction in unbound PCSK9 levels in cynomolgus monkey at 0.2 mg/kg, po after 24 hrs; assay type: functional, Macaca fascicularis; design: scale not given: the % may be the effect or the level left
[19] = Cmax in cynomolgus monkey at 1 mg/kg, po measured upto 72 hrs by LC-MS/MS analysis; assay type: ADME, organism-based, Macaca fascicularis; design: route oral, dose 1 mg/kg, time <=72; details: in vivo
[20] = AUC extrapolated in Wistar Han rat at 5 mg/kg, id measured upto 24 hrs by LC-MS/MS analysis; assay type: ADME, organism-based; details: in vivo, other
[21] = system: Mast cell; assay: Induction of rat mast cells degranulation activity at 100 uM incubated for 30 mins; assay type: functional, tissue-based
[22] = Bioavailability in Wistar Han rat at 5 mg/kg, id measured upto 24 hrs by LC-MS/MS analysis; assay type: ADME, organism-based; details: in vivo
[23] = AUC extrapolated in cynomolgus monkey at 1 mg/kg, po measured upto 72 hrs by LC-MS/MS analysis; assay type: ADME, organism-based, Macaca fascicularis; details: in vivo
[24] = target: T1, Proprotein convertase subtilisin/kexin type 9; assay: Inhibition of human PCSK9 using Alexa Fluor […] as substrate incubated for 2 hrs by FRET plus assay
[25] = Tmax in cynomolgus monkey at 1 mg/kg, po measured upto 72 hrs by LC-MS/MS analysis; assay type: ADME, organism-based, Macaca fascicularis; details: in vivo
[26] = Volume of distribution at steady state in cynomolgus monkey at 0.2 mg/kg, iv measured upto 72 hrs by LC-MS/MS analysis; assay type: ADME, organism-based, Macaca fascicularis; details: in vivo, read-out: Vdss
[27] = Stability of the compound assessed as bovine pancreatic trypsin-mediated parent compound depletion by measuring parent compound remaining after 1 hr by LC-MS/MS analysis; assay type: ADME, Bos taurus; details: cattle, read-out: Stability
[28] = Reduction in LDL-cholesterol levels in cynomolgus monkey at 0.2 mg/kg, iv after 48 hrs; assay type: functional, Macaca fascicularis; design: scale not given: the % may be the effect or the level left
[29] = Tmax in Wistar Han rat at 5 mg/kg, id measured upto 24 hrs by LC-MS/MS analysis; assay type: ADME, organism-based; details: in vivo
[30] = Cmax in Wistar Han rat at 5 mg/kg, id measured upto 24 hrs by LC-MS/MS analysis; assay type: ADME, organism-based; design: dose 5 mg/kg, time <=24; details: in vivo
[31] = species on record: Sus scrofa; assay: Stability of the compound assessed as porcine pancreatic elastase-mediated parent compound depletion by measuring parent compound remaining after 1 hr by LC-MS/MS analysis
[32] = AUC(0 to infinity) in cynomolgus monkey at 1 mg/kg, po measured upto 72 hrs by LC-MS/MS analysis; assay type: ADME, organism-based, Macaca fascicularis; design: route oral, dose 1 mg/kg, time <=72; details: in vivo
[33] = system: Macaca fascicularis; assay: Reduction in LDL-cholesterol levels in cynomolgus monkey at 0.2 mg/kg, iv after 4 weeks; assay type: functional, organism-based
[34] = AUC(0 to infinity) in OATP knock out Wistar Han rat at 1 mg/kg, iv measured upto 24 hrs by LC-MS/MS analysis; assay type: ADME, organism-based; design: route intravenous, dose 1 mg/kg, time <=24; details: in vivo
[35] = Protein binding in OATP knock out Wistar Han rat; assay type: ADME; details: read-out: PB
[36] = Clearance in Wistar Han rat at 1 mg/kg, iv measured upto 24 hrs by LC-MS/MS analysis; assay type: ADME, organism-based; details: in vivo
[37] = Volume of distribution at steady state in Wistar Han rat at 1 mg/kg, iv measured upto 24 hrs by LC-MS/MS analysis; assay type: ADME, organism-based; details: in vivo, read-out: Vdss
[38] = Unbound clearance in OATP knock out Wistar Han rat at 1 mg/kg, iv measured upto 24 hrs by LC-MS/MS analysis; assay type: ADME, organism-based; details: in vivo
[39] = Protein binding in cynomolgus monkey at 1 mg/kg, iv measured upto 72 hrs by LC-MS/MS analysis; assay type: ADME, organism-based, Macaca fascicularis; details: in vivo, read-out: PB (converted)
[40] = Half life in Wistar Han rat at 1 mg/kg, iv measured upto 24 hrs by LC-MS/MS analysis; assay type: ADME, organism-based; details: in vivo
[41] = Half life in OATP knock out Wistar Han rat at 1 mg/kg, iv measured upto 24 hrs by LC-MS/MS analysis; assay type: ADME, organism-based; details: in vivo
[42] = Unbound clearance in Wistar Han rat at 1 mg/kg, iv measured upto 24 hrs by LC-MS/MS analysis; assay type: ADME, organism-based; details: in vivo
[43] = Volume of distribution at steady state in cynomolgus monkey at 1 mg/kg, iv measured upto 72 hrs by LC-MS/MS analysis; assay type: ADME, organism-based, Macaca fascicularis; details: in vivo, read-out: Vdss
[44] = Unbound clearance in cynomolgus monkey at 1 mg/kg, iv measured upto 72 hrs by LC-MS/MS analysis; assay type: ADME, organism-based, Macaca fascicularis; details: in vivo
[45] = Clearance in OATP knock out Wistar Han rat at 1 mg/kg, iv measured upto 24 hrs by LC-MS/MS analysis; assay type: ADME, organism-based; details: in vivo
[46] = Clearance in cynomolgus monkey at 1 mg/kg, iv measured upto 72 hrs by LC-MS/MS analysis; assay type: ADME, organism-based, Macaca fascicularis; details: in vivo
[47] = AUC(0 to infinity) in Wistar Han rat at 1 mg/kg, iv measured upto 24 hrs by LC-MS/MS analysis; assay type: ADME, organism-based; design: route intravenous, dose 1 mg/kg, time <=24; details: in vivo
[48] = AUC(0 to infinity) in cynomolgus monkey at 1 mg/kg, iv measured upto 72 hrs by LC-MS/MS analysis; assay type: ADME, organism-based, Macaca fascicularis; design: route intravenous, dose 1 mg/kg, time <=72; details: in vivo
[49] = Protein binding in Wistar Han rat at 1 mg/kg, iv measured upto 24 hrs by LC-MS/MS analysis; assay type: ADME, organism-based; details: in vivo, read-out: PB (converted)
[50] = Volume of distribution at steady state in OATP knock out Wistar Han rat at 1 mg/kg, iv measured upto 24 hrs by LC-MS/MS analysis; assay type: ADME, organism-based; details: in vivo, read-out: Vdss
[51] = Half life in cynomolgus monkey at 1 mg/kg, iv measured upto 72 hrs by LC-MS/MS analysis; assay type: ADME, organism-based, Macaca fascicularis; details: in vivo

T1 sequence (Q8NBP7 31-152 limits assumed): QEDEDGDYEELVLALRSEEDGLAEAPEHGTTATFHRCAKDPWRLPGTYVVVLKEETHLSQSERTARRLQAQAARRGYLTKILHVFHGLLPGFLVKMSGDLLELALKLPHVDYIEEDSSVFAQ
T1 sequence (Q8NBP7 153-692 limits assumed): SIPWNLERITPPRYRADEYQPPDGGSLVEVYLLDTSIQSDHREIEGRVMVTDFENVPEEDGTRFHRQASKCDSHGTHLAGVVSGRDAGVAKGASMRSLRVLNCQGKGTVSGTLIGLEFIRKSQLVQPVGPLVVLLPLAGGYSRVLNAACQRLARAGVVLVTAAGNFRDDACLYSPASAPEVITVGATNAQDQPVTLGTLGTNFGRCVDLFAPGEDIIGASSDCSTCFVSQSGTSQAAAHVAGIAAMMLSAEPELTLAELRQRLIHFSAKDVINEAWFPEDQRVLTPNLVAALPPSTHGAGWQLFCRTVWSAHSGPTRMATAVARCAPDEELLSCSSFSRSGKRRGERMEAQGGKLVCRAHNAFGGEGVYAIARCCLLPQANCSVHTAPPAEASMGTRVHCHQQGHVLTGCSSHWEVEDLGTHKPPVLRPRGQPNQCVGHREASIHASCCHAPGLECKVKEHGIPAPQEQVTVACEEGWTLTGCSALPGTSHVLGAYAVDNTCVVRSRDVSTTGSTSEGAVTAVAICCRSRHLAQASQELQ

- inhibition [1]: Active
- half-life [2]: 7.6 h
- Ki [3]: > 0.129 nM
- AUC(0-inf) [4]: 1.47 µM·h
- clearance [6]: 1.4 mL/min/kg
- fraction unbound at 72 h [7]: 0.247
- Ki [8]: 0.00239 nM
- half-life [9]: > 6 h
- CL free [10]: 5.8 mL/min/kg
- EC50 [11]: > 22000 nM
- Stability [12]: 97.2%
- AUC(0-inf) [13]: 0.274 µM·h
- bioavailability [14]: 2.9%
- Stability [16]: 93%
- inhibition [17]: Active
- Cmax [19]: 9.8 nM
- %AUCextra [20]: 3%
- bioavailability [22]: 2.7%
- %AUCextra [23]: 43%
- Ki [24]: 0.0114 nM
- Tmax [25]: 2 h
- Vd [26]: 0.7 L/kg
- remaining at 1 h [27]: 96.8%
- Tmax [29]: 0.5 h
- Cmax [30]: 92 nM
- Stability [31]: 97%
- AUC(0-inf) [32]: 0.216 µM·h
SMILES: COc1ccc(C[C@@H]2NC(=O)[C@H]([C@@H](C)O)NC(=O)[C@@H]3[C@@H]4CCN3C(=O)[C@@H]3Cc5cn(c6ccc(F)cc56)Cc5cn(nn5)-c5cc(cc(c5)CSCCC(=O)N[C@@H](CNC(=O)CCOCCOCC[N+](C)(C)C)C(=O)N[C@H](C)C(=O)N[C@@H](Cc5cccc(c5)C/C=C/CO4)C(=O)N3)CSCCNC(=O)[C@]3(C)CCCN3C2=O)cc1
- Activity [5]: >80%
- Activity [15]: 80%
- Activity [18]: 60%
- Activity [21]: inactive
- Activity [28]: >50%
- Activity [33]: inactive

- AUC(0-inf) [34]: 2.92 µM·h
- fraction unbound [35]: 0.01
- Ki [3]: 0.48 nM
- clearance [36]: 28.7 mL/min/kg
- Vd [37]: 0.8 L/kg
- CL free [38]: 453 mL/min/kg
- fraction unbound at 72 h [39]: 0.024
- EC50 [11]: 130 nM
- half-life [40]: 2.1 h
- half-life [41]: 3.9 h
- CL free [42]: > 3000 mL/min/kg
- Vd [43]: 2.1 L/kg
- CL free [44]: 576 mL/min/kg
- clearance [45]: 4.4 mL/min/kg
- clearance [46]: 19.6 mL/min/kg
- Ki [24]: 0.39 nM
- AUC(0-inf) [47]: 0.442 µM·h
- AUC(0-inf) [48]: 0.648 µM·h
- fraction unbound at 24 h [49]: 0.01
- Vd [50]: 0.9 L/kg
- half-life [51]: 3.4 h
SMILES: COc1ccc(C[C@@H]2NC(=O)[C@H]([C@@H](C)OC)NC(=O)[C@@H]3[C@@H]4CCN3C(=O)[C@H](Cc3c[nH]c5ccc(F)cc35)NC(=O)[C@H](Cc3cccc(c3)C/C=C/CO4)NC(=O)[C@@H](C)NC(=O)[C@H](C)NC(=O)CCSCc3cccc(c3)CSCCNC(=O)[C@]3(C)CCCN3C2=O)cc1
- Activity [21]: inactive
